Experimental data reported in patent US7858630B2, “D3 and 5-HT2A receptor modulators” (Hoffmann-La Roche Inc., priority 2008, dated 2010).

Experiments:
[1] = molecular target: T1, human dopamine D3 receptor (Homo sapiens, UniProt P35462); assay: Radioligand binding ([3H]-spiperone) to membranes of HEK-293 EBNA cells expressing human D3 receptor; details: human D3, 0.5 nM [3H]-spiperone, HEK-293 EBNA membranes, 1 h at RT
T1 construct: expressed in transfected cells; host or cells: HEK-293 EBNA cells, transient transfection; membrane preparation
Experimental: (§1) The ability of the compounds to bind to the 5-HT2A, D3 and D2 receptors was determined using radioligand binding to cloned receptors selectively expressed in HEK-293 EBNA cells.
(§2) Membrane Preparation for Human D2, Human D3 and Human 5-HT2A Receptors
(§3) HEK-293 EBNA cells were transiently transfected with expression plasmids encoding for the human D2 or D3 dopamine- or for the human 5-HT2A serotonin receptor, respectively. The cells were harvested 48 h post-transfection, washed three times with cold PBS and stored at −80° C. prior to use. The pellet was suspended in cold 50 mM Tris-HCl buffer containing 10 mM EDTA (pH 7.4) and homogenized with a Polytron (Kinematica AG, Basel, Switzerland) for 20-30 sec at 12.000 rpm. After centrifugation at 48.000×g for 30 min at 4° C., the pellet was resuspended in cold 10 mM Tris-HCl buffer containing 0.1 mM EDTA (pH 7.4), homogenized, and centrifuged as above. This pellet was further resuspended in a smaller volume of ice cold 10 mM Tris-HCl buffer containing 0.1 mM EDTA (pH 7.4) and homogenized with a Polytron for 20-30 sec at 12.000 rpm. The protein content of this homogenate was determined with the Bio-Rad (Bradford) Protein Assay (Biorad Laboratories GmbH, München, Germany) according to the instructions of the manufacturer using gamma globulin as the standard. This homogenate was stored at −80° C. in aliquots and thawed immediately prior to use.
(§4) Radioligand Binding Assay Conditions
(§5) Aliquots of membrane preparations were thawed at RT, resupended in assay buffer (D2, D3: 50 mM Tris-HCl, 120 mM NaCl, 5 mM MgCl2, 1 mM EDTA, 5 mM KCl, 1.5 mM CaCl2, pH=7.4; 5-HT2A: 50 mM Tris-HCl, 10 mM MgCl2, 1 mM EGTA, pH=7.4), homogenized with a Polytron for 20-30 sec at 12.000 rpm and adjusted to a final concentration of approximately 7.5 μg protein/well (D2, D3) and 15 μg protein/well (5-HT2A), respectively.
(§6) The binding affinity (Ki) of the compounds was determined using radioligand binding. Membranes were incubated in a total volume of 200 μl with a fixed concentration of radioligand (final concentration approximately 0.7 nM [^3H]-spiperone for D2, 0.5 nM [^3H]-spiperone for D3, and 1.1 nM [^3H]-ketanserin for 5-HT2A) and ten concentrations of test compound in ranging between 10 μM-0.1 nM for 1 h at RT. At the end of the incubation, the reaction mixtures were filtered on to unifilter 96-well white microplates with bonded GF/C filters (Packard BioScience, Zurich, Switzerland; preincubated for 1 h in 0.1% polyethylenimine (PEI) in assay buffer) with a Filtermate 196 harvester (Packard BioScience) and washed 3 times with cold assay buffer. The nonspecific binding was determined with equally composed reaction mixtures in the presence of 10 μM unlabelled spiperone. Per well 45 μl of Microscint 40 (Perkin Elmer, Schwerzenbach, Switzerland) was added, plates for sealed, shaken for 20 min and counted for 3 min on a Topcount Microplate Scintillation Counter (Canberra Packard SA, Zurich, Switzerland) with quenching correction.
(§7) The CPM value for each duplicate of a concentration of competing compound was averaged (y1), then the % specific binding was calculated according to the equation (((y1−non-specific)/(total binding-non-specific))×100). Graphs were plotted with the % specific binding using XLfit, a curve fitting program that iteratively plots the data using Levenburg Marquardt algorithm. The single site competition analysis equation used was y=A+((B−A)/(1+((x/C)^D))), where y is the % specific binding, A is the minimum y, B is the maximum y, C is the IC50, x is the log10 of the concentration of the competing compound and D is the slope of the curve (the Hill Coefficient). From these curves the IC50 (inhibition concentration at which 50% specific binding of the radioligand was displaced) and Hill coefficient were determined. […]

[2] = molecular target: T2, human serotonin 5-HT2A receptor (Homo sapiens, UniProt P28223); assay: Radioligand binding ([3H]-ketanserin) to membranes of HEK-293 EBNA cells expressing human 5-HT2A receptor; details: 1.1 nM [3H]-ketanserin, HEK-293 EBNA membranes, 1 h at RT
T2 construct: expressed in transfected cells; host or cells: HEK-293 EBNA cells, transient transfection; membrane preparation
Experimental: as §1, §2, §3, §4, §5, §6, §7

[3] = molecular target: T3, human dopamine D2 receptor (Homo sapiens, UniProt P14416); assay: Radioligand binding ([3H]-spiperone) to membranes of HEK-293 EBNA cells expressing human D2 receptor; details: human D2, 0.7 nM [3H]-spiperone, HEK-293 EBNA membranes, 1 h at RT
T3 construct: expressed in transfected cells; host or cells: HEK-293 EBNA cells, transient transfection; membrane preparation
Experimental: as §1, §2, §3, §4, §5, §6, §7

T3 sequence (P14416 whole entry): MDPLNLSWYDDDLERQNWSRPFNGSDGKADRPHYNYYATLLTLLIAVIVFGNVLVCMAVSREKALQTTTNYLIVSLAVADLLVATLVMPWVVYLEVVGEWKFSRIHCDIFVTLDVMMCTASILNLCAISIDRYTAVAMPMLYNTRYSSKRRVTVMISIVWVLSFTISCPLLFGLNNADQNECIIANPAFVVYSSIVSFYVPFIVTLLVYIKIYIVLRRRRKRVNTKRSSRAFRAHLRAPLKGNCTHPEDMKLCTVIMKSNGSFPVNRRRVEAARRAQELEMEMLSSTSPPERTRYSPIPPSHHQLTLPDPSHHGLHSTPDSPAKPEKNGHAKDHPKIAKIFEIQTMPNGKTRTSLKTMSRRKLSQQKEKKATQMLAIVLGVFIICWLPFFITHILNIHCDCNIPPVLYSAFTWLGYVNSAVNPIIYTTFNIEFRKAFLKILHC
T1 sequence (P35462 whole entry): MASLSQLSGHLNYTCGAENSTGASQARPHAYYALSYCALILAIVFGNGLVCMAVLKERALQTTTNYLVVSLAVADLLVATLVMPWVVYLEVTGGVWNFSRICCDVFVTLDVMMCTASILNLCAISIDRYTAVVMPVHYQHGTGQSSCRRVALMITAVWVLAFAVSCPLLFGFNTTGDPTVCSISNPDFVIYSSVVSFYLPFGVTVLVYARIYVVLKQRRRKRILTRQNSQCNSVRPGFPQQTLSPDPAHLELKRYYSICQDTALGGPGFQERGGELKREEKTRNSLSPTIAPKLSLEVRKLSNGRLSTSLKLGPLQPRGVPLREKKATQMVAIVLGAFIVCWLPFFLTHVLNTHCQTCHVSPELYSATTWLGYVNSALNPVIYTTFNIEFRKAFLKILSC
T2 sequence (P28223 whole entry): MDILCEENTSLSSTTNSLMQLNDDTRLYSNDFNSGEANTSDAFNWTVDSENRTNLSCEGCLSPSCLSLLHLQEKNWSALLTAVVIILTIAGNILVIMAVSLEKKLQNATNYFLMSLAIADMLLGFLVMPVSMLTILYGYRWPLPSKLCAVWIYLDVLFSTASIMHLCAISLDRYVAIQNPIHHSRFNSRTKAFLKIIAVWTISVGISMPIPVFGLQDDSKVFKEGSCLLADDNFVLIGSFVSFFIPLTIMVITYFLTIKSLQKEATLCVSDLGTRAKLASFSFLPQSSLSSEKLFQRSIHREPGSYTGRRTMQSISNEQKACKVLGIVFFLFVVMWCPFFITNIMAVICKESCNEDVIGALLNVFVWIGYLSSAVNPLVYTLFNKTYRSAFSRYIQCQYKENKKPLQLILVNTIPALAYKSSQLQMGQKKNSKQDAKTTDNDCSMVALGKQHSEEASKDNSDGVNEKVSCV

With COC(CC(=O)N[C@H]1CC[C@H](CCN2CCN(c3noc4cc(Cl)ccc34)CC2)CC1)OC [Example 55, N-trans-(4-{2-[4-(6-Chloro-benzo[d]isoxazol-3-yl)-piperazin-1-yl]-ethyl}-cyclohexyl)-3,3-dimethoxy-propionamide] the Ki [1] was 0.00616 µM, the Ki [2] was 0.0076 µM and the Ki [3] was 0.396 µM.
O=C(N[C@H]1CC[C@H](CCN2CCN(c3noc4cc(F)c(Cl)cc34)CC2)CC1)C1CC(Cl)C1 (stereo partly drawn) [Example 83, 3-Chloro-cyclobutanecarboxylic acid N-trans-(4-{2-[4-(5-chloro-6-fluoro-benzo[d]isoxazol-3-yl)-piperazin-1-yl]-ethyl}-cyclohexyl)-amide] showed a Ki [1] of 0.00585 µM, a Ki [2] of 0.00855 µM and a Ki [3] of 11.1 µM.
Molecule COCC(=O)N[C@H]1CC[C@H](CCN2CCN(c3noc4cc(F)c(F)cc34)CC2)CC1 [Example 60, N-trans-(4-{2-[4-(5,6-Difluoro-benzo[d]isoxazol-3-yl)-piperazin-1-yl]-ethyl}-cyclohexyl)-2-methoxy-acetamide] has a Ki [1] of 0.0204 µM, a Ki [2] of 0.0095 µM and a Ki [3] of 0.878 µM.
Molecule CO[C@@H]1CC[C@@H](CC(=O)N[C@H]2CC[C@H](CCN3CCN(c4noc5cc(F)c(F)cc45)CC3)CC2)C1 (relative stereo) [Example 65, N-trans-(4-{2-[4-(5,6-Difluoro-benzo[d]isoxazol-3-yl)-piperazin-1-yl]-ethyl}-cyclohexyl)-2-trans-(3-methoxy-cyclopentyl)-acetamide] has a Ki [1] of 0.00767 µM, a Ki [2] of 0.0044 µM and a Ki [3] of 0.822 µM.
In the case of O=C(N[C@H]1CC[C@H](CCN2CCN(c3noc4cc(Cl)c(Cl)cc34)CC2)CC1)C1CCOCC1 [Example 95, Tetrahydro-pyran-4-carboxylic acid N-trans-(4-{2-[4-(5,6-dichloro-benzo[d]isoxazol-3-yl)-piperazin-1-yl]-ethyl}-cyclohexyl)-amide], the Ki [1] is reported as 0.117 µM, the Ki [2] is reported as 0.0499 µM and the Ki [3] is reported as 7.95 µM.
For COC(C)C(=O)N[C@H]1CC[C@H](CCN2CCN(c3noc4cc(F)c(C)cc34)CC2)CC1 (stereo partly drawn) [Example 119, N-trans-(4-{2-[4-(6-Fluoro-5-methyl-benzo[d]isoxazol-3-yl)-piperazin-1-yl]-ethyl}-cyclohexyl)-2-methoxy-propionamide], the Ki [1] was 0.053 µM, the Ki [2] was 0.01 µM and the Ki [3] was 2.27 µM.
Work on COCCC(=O)N[C@H]1CC[C@H](CCN2CCN(c3noc4cc(Cl)c(F)cc34)CC2)CC1 [Example 71, N-trans-(4-{2-[4-(6-Chloro-5-fluoro-benzo[d]isoxazol-3-yl)-piperazin-1-yl]-ethyl}-cyclohexyl)-3-methoxy-propionamide] yielded a Ki [1] of 0.0201 µM, a Ki [2] of 0.0892 µM and a Ki [3] of 1.43 µM.
Molecule CCS(=O)(=O)N[C@H]1CC[C@H](CCN2CCN(c3noc4cc(F)c(F)cc34)CC2)CC1 [Example 68, Ethanesulfonic acid N-trans-(4-{2-[4-(5,6-difluoro-benzo[d]isoxazol-3-yl)-piperazin-1-yl]-ethyl}-cyclohexyl)-amide] has a Ki [1] of 0.0164 µM, a Ki [2] of 0.0178 µM and a Ki [3] of 0.641 µM.
With COCCC(=O)N[C@H]1CC[C@H](CCN2CCN(c3noc4cc(C)ccc34)CC2)CC1 [Example 98, 3-Methoxy-N-trans-(4-{2-[4-(6-methyl-benzo[d]isoxazol-3-yl)-piperazin-1-yl]-ethyl}-cyclohexyl)-propionamide] the Ki [1] was 0.00742 µM, the Ki [2] was 0.00521 µM and the Ki [3] was 0.222 µM.
For Cc1cc2c(N3CCN(CC[C@H]4CC[C@H](NC(=O)CC5CCCO5)CC4)CC3)noc2cc1F (stereo partly drawn) [Example 118, N-trans-(4-{2-[4-(6-Fluoro-5-methyl-benzo[d]isoxazol-3-yl)-piperazin-1-yl]-ethyl}-cyclohexyl)-2-(tetrahydro-furan-2-yl)-acetamide], the Ki [1] was 0.022 µM, the Ki [2] was 0.021 µM and the Ki [3] was 1.07 µM.
With COC(C)CC(=O)N[C@H]1CC[C@H](CCN2CCN(c3noc4cc(Cl)ccc34)CC2)CC1 (stereo partly drawn) [Example 37, N-trans-(4-{2-[4-(6-Chloro-benzo[d]isoxazol-3-yl)-piperazin-1-yl]-ethyl}-cyclohexyl)-3-methoxy-butyramide] the Ki [1] was 0.0149 µM, the Ki [2] was 0.00732 µM and the Ki [3] was 0.35 µM.
Work on COc1ccc(C(=O)N[C@H]2CC[C@H](CCN3CCN(c4noc5cc(F)c(Cl)cc45)CC3)CC2)s1 [Example 85, 5-Methoxy-thiophene-2-carboxylic acid N-trans-(4-{2-[4-(5-chloro-6-fluoro-benzo[d]isoxazol-3-yl)-piperazin-1-yl]-ethyl}-cyclohexyl)-amide] yielded a Ki [1] of 0.0082 µM, a Ki [2] of 0.00747 µM and a Ki [3] of 0.368 µM.
Molecule COCCC(=O)N[C@H]1CC[C@H](CCN2CCN(c3noc4ccccc34)CC2)CC1 [Example 1, N-trans-{4-[2-(4-benzo[d]isoxazol-3-yl-piperazin-1-yl)-ethyl]-cyclohexyl}-3-methoxy-propionamide] has a Ki [1] of 0.0121 µM, a Ki [2] of 0.00488 µM and a Ki [3] of 0.347 µM.
Molecule O=C(N[C@H]1CC[C@H](CCN2CCN(c3noc4ccc(F)cc34)CC2)CC1)C1CCOCC1 [Example 7, Tetrahydro-pyran-4-carboxylic acid-trans-(4-{2-[4-(5-fluoro-benzo[d]isoxazol-3-yl)-piperazin-1-yl]-ethyl}-cyclohexyl)-amide] has a Ki [1] of 0.0116 µM, a Ki [2] of 0.0138 µM and a Ki [3] of 0.654 µM.
With CC1(C)CC(CC(=O)N[C@H]2CC[C@H](CCN3CCN(c4noc5ccc(F)cc45)CC3)CC2)CCO1 (mixture of isomers) [Example 18, Rac-2-(2,2-Dimethyl-tetrahydro-pyran-4-yl)-N-trans-(4-{2-[4-(5-fluoro-benzo[d]isoxazol-3-yl)-piperazin-1-yl]-ethyl}-cyclohexyl)-acetamide] the Ki [1] was 0.0121 µM, the Ki [2] was 0.0252 µM and the Ki [3] was 0.891 µM.
In the case of CO[C@H]1CC[C@H](CC(=O)N[C@H]2CC[C@H](CCN3CCN(c4noc5ccc(F)cc45)CC3)CC2)CC1 [Example 6, N-trans-(4-{2-[4-(5-Fluoro-benzo[d]isoxazol-3-yl)-piperazin-1-yl]-ethyl}-cyclohexyl)-2-trans-(4-methoxy-cyclohexyl)-acetamide], the Ki [1] is reported as 0.00644 µM, the Ki [2] is reported as 0.0263 µM and the Ki [3] is reported as 11.8 µM.
Molecule O=C(CC1CCOCC1)N[C@H]1CC[C@H](CCN2CCN(c3noc4ccc(F)cc34)CC2)CC1 [Example 8, N-trans-(4-{2-[4-(5-Fluoro-benzo[d]isoxazol-3-yl)-piperazin-1-yl]-ethyl}-cyclohexyl)-2-(tetrahydro-pyran-4-yl)-acetamide] has a Ki [1] of 0.00771 µM, a Ki [2] of 0.0272 µM and a Ki [3] of 1.71 µM.
CO[C@H]1CC[C@H](CC(=O)N[C@H]2CC[C@H](CCN3CCN(c4noc5cc(Cl)ccc45)CC3)CC2)CC1 [Example 31, N-trans-(4-{2-[4-(6-Chloro-benzo[d]isoxazol-3-yl)-piperazin-1-yl]-ethyl}-cyclohexyl)-2-trans-(4-methoxy-cyclohexyl)-acetamide] gave a Ki [1] of 0.00889 µM, a Ki [2] of 0.0029 µM and a Ki [3] of 4.99 µM.
In the case of CO[C@@H]1CC[C@@H](CC(=O)N[C@H]2CC[C@H](CCN3CCN(c4noc5ccccc45)CC3)CC2)C1 (relative stereo) [Example 3, N-trans-{4-[2-(4-Benzo[d]isoxazol-3-yl-piperazin-1-yl)-ethyl]-cyclohexyl]-2-trans-(3-methoxy-cyclopentyl)-acetamide], the Ki [1] is reported as 0.0139 µM, the Ki [2] is reported as 0.482 µM and the Ki [3] is reported as 0.355 µM.
